Experimental data taken from article PMC11798738, “Targeting ASK1 by CS17919 alleviates kidney‐ and liver‐related diseases in murine models” (Animal Models and Experimental Medicine, 2024).
pIC50: −log10 of the molar value.

How the values were obtained:
MRC‐5 = assay: MTS cytotoxicity assay, MRC-5; assay type: cell-based, human; conditions: 72 h
Description: (§1) Human embryonic kidney cells (HEK‐293A), human hepatocellular carcinoma cells (HUH7), human embryonic liver diploid cells (CCC‐HEL‐1) and human embryonic lung cells (MRC‐5) were selected for the cytotoxicity study of both drugs, using the MTS assay protocol. Cells were cultured at 37°C with 5% CO2 using an appropriate medium. […] After 72 h of incubation, 30 μL of MTS solution was added to each well, and the cells were then incubated for 2–4 h in the dark. The absorbance value of each well at 490 nm was measured using an enzymatic plate reader and the IC50 for each drug and each cell line was calculated. Cell viability and cytoxicity experiments were repeated three times.

HUH7 = assay: MTS cytotoxicity assay, HUH7; assay type: cell-based, human; conditions: 72 h
Description: as §1

[1] = Tissue distribution in mice, oral; assay type: in vivo, C57BL/6J mice; conditions: 20 mg/kg gavage
Description: Male C57BL/6J mice at 6–8 weeks (Beijing Huafukang Biotechnology Co., Ltd) were also selected for tissue distribution studies. Mice were gavage‐administered at 20 mg/kg and anesthetized at 1, 2, 4, and 8 h after administration for tissue collection, including whole blood, heart, liver, kidney, and brain. These organs were homogenized using a tissue homogenizer and analyzed together with the plasma according to the standard LC/MS procedure.

CYP 2B6 = CYP 2B6 (Homo sapiens, UniProt P20813); assay: CYP inhibition in vitro; assay type: in vitro ADME
CYP 2C9 = CYP 2C9 (Homo sapiens, UniProt P11712); assay: CYP inhibition in vitro; assay type: in vitro ADME
[2] = Metabolic stability in liver microsomes; assay type: in vitro ADME; conditions: Human
[3] = Metabolic stability in liver microsomes; assay type: in vitro ADME; conditions: Mouse

CYP 2C9, sequence (P11712 whole entry): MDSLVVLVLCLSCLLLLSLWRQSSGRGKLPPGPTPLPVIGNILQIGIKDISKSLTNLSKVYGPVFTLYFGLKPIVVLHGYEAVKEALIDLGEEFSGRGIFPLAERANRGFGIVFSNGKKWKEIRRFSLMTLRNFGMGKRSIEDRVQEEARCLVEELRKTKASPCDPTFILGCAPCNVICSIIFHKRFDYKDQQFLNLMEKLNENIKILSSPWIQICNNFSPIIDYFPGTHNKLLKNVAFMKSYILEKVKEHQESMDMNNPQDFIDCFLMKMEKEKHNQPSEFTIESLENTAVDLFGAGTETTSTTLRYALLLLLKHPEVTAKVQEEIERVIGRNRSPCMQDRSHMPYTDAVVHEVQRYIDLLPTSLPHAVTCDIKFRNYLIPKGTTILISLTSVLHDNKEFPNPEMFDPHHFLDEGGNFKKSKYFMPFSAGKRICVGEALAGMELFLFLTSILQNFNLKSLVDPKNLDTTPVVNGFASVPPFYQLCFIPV
CYP 2B6, sequence (P20813 whole entry): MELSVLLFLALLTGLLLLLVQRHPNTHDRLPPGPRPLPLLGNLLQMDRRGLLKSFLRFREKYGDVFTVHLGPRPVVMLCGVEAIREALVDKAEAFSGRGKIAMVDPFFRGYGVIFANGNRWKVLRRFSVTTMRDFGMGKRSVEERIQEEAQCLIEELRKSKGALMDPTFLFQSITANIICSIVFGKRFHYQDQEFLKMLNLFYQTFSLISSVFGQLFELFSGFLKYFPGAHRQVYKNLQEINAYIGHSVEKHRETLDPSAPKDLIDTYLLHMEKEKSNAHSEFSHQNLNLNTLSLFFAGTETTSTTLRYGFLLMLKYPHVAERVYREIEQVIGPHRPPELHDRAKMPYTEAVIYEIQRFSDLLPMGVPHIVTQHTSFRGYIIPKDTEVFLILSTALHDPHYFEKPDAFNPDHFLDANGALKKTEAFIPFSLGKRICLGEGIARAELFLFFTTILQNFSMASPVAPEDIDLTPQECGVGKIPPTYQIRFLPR

For `Cc1cc(F)c(C(=O)Nc2cccc(-c3nncn3[C@H](C)C(F)(F)F)n2)cc1NC(=O)C1CC1` [CS17919], the “Cytotoxicity (cell viability)” value (MRC‐5) was “barely affected cell viability”, the “Cytotoxicity (cell viability)” value (HUH7) was “barely affected cell viability” and the Tissue accumulation [1] was “tissue‐specific accumulation of CS17919 in the liver and kidney”. It also gave a Brain concentration ([1]; 1 h, mean ± SD, n = 3) of 30.42 ± 6.82 ng/g, a Heart concentration ([1]; 1 h, mean ± SD, n = 3) of 1330.94 ± 384.66 ng/g and a Kidney concentration ([1]; 1 h, mean ± SD, n = 3) of 4353.18 ± 260.20 ng/g. For the same compound, the Liver concentration ([1]; 1 h, mean ± SD, n = 3) was 8933.89 ± 456.44 ng/g, the Plasma concentration ([1]; 1 h, mean ± SD, n = 3) was 3104.56 ± 474.21 ng/mL and the Brain concentration ([1]; 2 h, mean ± SD, n = 3) was 7.37 ± 1.98 ng/g. The Heart concentration ([1]; 2 h, mean ± SD, n = 3) was 918.02 ± 156.73 ng/g, the Kidney concentration ([1]; 2 h, mean ± SD, n = 3) was 2751.58 ± 252.41 ng/g and the Liver concentration ([1]; 2 h, mean ± SD, n = 3) was 5322.41 ± 114.54 ng/g. It also gave a Plasma concentration ([1]; 2 h, mean ± SD, n = 3) of 2737.71 ± 208.45 ng/mL, a Brain concentration ([1]; 4 h, mean ± SD, n = 3) of 8.28 ± 4.78 ng/g and a Heart concentration ([1]; 4 h, mean ± SD, n = 3) of 338.03 ± 97.76 ng/g. The Kidney concentration ([1]; 4 h, mean ± SD, n = 3) was 1173.69 ± 135.53 ng/g, the Liver concentration ([1]; 4 h, mean ± SD, n = 3) was 2371.88 ± 421.50 ng/g and the Plasma concentration ([1]; 4 h, mean ± SD, n = 3) was 1444.51 ± 155.53 ng/mL. The Heart concentration ([1]; 8 h, mean ± SD, n = 3) was 256.60 ± 117.57 ng/g, the Kidney concentration ([1]; 8 h, mean ± SD, n = 3) was 993.13 ± 136.67 ng/g and the Liver concentration ([1]; 8 h, mean ± SD, n = 3) was 1939.43 ± 337.32 ng/g. For the same compound, the Plasma concentration ([1]; 8 h, mean ± SD, n = 3) was 856.1 ± 332.34 ng/mL, the Brain concentration ([1]; 8 h, LLOQ 1 ng/g) was “LLOQ (<1) ng/g” and the pIC50 (CYP 2B6) was under 5.00. For the same compound, the pIC50 (CYP 2C9) was under 5.00, the “T1/2 in liver microsomes” value [2] was “>145 min” and the “T1/2 in liver microsomes” value [3] was “>145 min”.
